Laboratory results as given in ChEMBL document CHEMBL1146687, “Novel semi-synthetic nocathiacin antibiotics: synthesis and antibacterial activity of bis- and mono-O-alkylated derivatives” (Bioorg Med Chem Lett, 2004).
Values after ≈ are worked out from the molar mass of the structure shown.

Assays:
[1] = Aqueous solubility at neutral pH; type: physicochemical
[2] = test system: Enterococcus faecalis; test: In vitro antibacterial activity against Enterococcus faecalis; type: functional
[3] = test system: Streptococcus pneumoniae; test: In vitro antibacterial activity against Streptococcus pneumoniae; type: functional
[4] = test system: Staphylococcus aureus; test: In vivo efficacy;(sc) tested for protection against staphylococcus infections in mice; type: functional; settings: read-out: PD50
[5] = test system: Staphylococcus aureus; test: In vitro antibacterial activity against Staphylococcus aureus; type: functional
[6] = test system: Staphylococcus aureus; test: In vitro antibacterial activity against […]; 0.0070-0.03; type: functional
[7] = test system: Mus musculus; test: In vivo efficacy (sc) tested for protection against staphylococcus infections in mice; 0.3-2.8; type: functional; settings: read-out: PD50
[8] = test system: Staphylococcus aureus; test: In vitro antibacterial activity against […]; 0.125-0.25; type: functional
[9] = test system: Streptococcus pneumoniae; test: In vitro antibacterial activity against Streptococcus pneumoniae; 0.003-0.015; type: functional
[10] = test system: Enterococcus faecalis; test: In vitro antibacterial activity against Enterococcus faecalis; 0.06-0.125; type: functional
[11] = test system: Mus musculus; test: In vivo efficacy (sc) tested for protection against staphylococcus infections in mice; 1.1-3.3; type: functional; settings: read-out: PD50
[12] = test system: Staphylococcus aureus; test: In vitro antibacterial activity against […]; 0.003-0.007; type: functional
[13] = test system: Streptococcus pneumoniae; test: In vitro antibacterial activity against Streptococcus pneumoniae; […]; type: functional

Row | SMILES | solubility [1] [µg/mL] | MIC [2] [µg/mL] | MIC [3] [µg/mL] | ED50 [4] [mg/kg] | MIC [5] [µg/mL] | further results
1 | C=C(NC(=O)c1csc(-c2nc3c(cc2O)-c2nc(cs2)C(=O)N[C@@H]([C@@H](C)O)C(=O)N/C(=C(\C)OC)c2nc(cs2)C(=O)N[C@@H]2c4nc(cs4)C(=O)N[C@@H](COC(=O)c4c5c6c(cccc6n4OCCCS(=O)(=O)O)COC(=O)[C@@H](O[C@H]4C[C@](C)(O)[C@H](N(C)C)[C@H](C)O4)[C@H]2OC5)c2nc-3cs2)n1)C(N)=O | > 2000 | 0.125 (≈ 0.0801 µM) | 0.007 (≈ 0.00449 µM) | 4 | 0.125 (≈ 0.0801 µM) | 
2 | C=C(NC(=O)c1csc(-c2nc3c(cc2O)-c2nc(cs2)C(=O)N[C@@H]([C@@H](C)O)C(=O)N/C(=C(\C)OC)c2nc(cs2)C(=O)N[C@@H]2c4nc(cs4)C(=O)N[C@@H](COC(=O)c4c5c6c(cccc6n4OCCC(=O)O)COC(=O)[C@@H](O[C@H]4C[C@](C)(O)[C@H](N(C)C)[C@H](C)O4)[C@H]2OC5)c2nc-3cs2)n1)C(N)=O | ~70 (≈ 46.4 µM) | 0.25 (≈ 0.166 µM) | 0.03 (≈ 0.0199 µM) | 10 | 0.125 (≈ 0.0828 µM) | 
3 | C=C(NC(=O)c1csc(-c2nc3c(cc2O)-c2nc(cs2)C(=O)N[C@@H]([C@@H](C)O)C(=O)N/C(=C(\C)OC)c2nc(cs2)C(=O)N[C@@H]2c4nc(cs4)C(=O)N[C@@H](COC(=O)c4c5c6c(cccc6n4OCOP(=O)(OC(C)(C)C)OC(C)(C)C)COC(=O)[C@@H](O[C@H]4C[C@](C)(O)[C@H](N(C)C)[C@H](C)O4)[C@H]2OC5)c2nc-3cs2)n1)C(N)=O | > 2000 | 0.015 (≈ 0.00904 µM) | 0.015 (≈ 0.00904 µM) | 3 | 0.125 (≈ 0.0753 µM) | 
4 | C=C(NC(=O)c1csc(-c2nc3c(cc2O)-c2nc(cs2)C(=O)N[C@@H]([C@@H](C)O)C(=O)N/C(=C(\C)OC)c2nc(cs2)C(=O)N[C@@H]2c4nc(cs4)C(=O)N[C@@H](COC(=O)c4c5c6c(cccc6n4O)COC(=O)[C@@H](O[C@H]4C[C@](C)(O)[C@H](N(C)C)[C@H](C)O4)[C@H]2OC5)c2nc-3cs2)n1)C(N)=O [MJ347-81F4 A] |  | 0.03 (≈ 0.0209 µM) | 0.002 (≈ 0.00139 µM) |  |  | MIC [6]: < 0.03 µg/mL; ED50 [7]: < 2.8 mg/kg
5 | C=C(NC(=O)c1csc(-c2nc3c(cc2O)-c2nc(cs2)C(=O)N[C@@H]([C@@H](C)O)C(=O)N/C(=C(\C)OC)c2nc(cs2)C(=O)N[C@@H]2c4nc(cs4)C(=O)N[C@@H](COC(=O)c4c5c6c(cccc6n4OCCN4CCOCC4)COC(=O)[C@@H](O[C@H]4C[C@](C)(O)[C@H](N(C)C)[C@H](C)O4)[C@H]2OC5)c2nc-3cs2)n1)C(N)=O |  |  |  | 3.4 |  | MIC [8]: < 0.25 µg/mL; MIC [9]: < 0.015 µg/mL; MIC [10]: < 0.125 µg/mL
6 | CN[C@H](CC(C)C)C(=O)N[C@H]1C(=O)N[C@@H](CC(N)=O)C(=O)N[C@H]2C(=O)N[C@H]3C(=O)N[C@H](C(=O)N[C@H](C(=O)O)c4cc(O)cc(O)c4-c4cc3ccc4O)[C@H](O)c3ccc(c(Cl)c3)Oc3cc2cc(c3O[C@@H]2O[C@H](CO)[C@@H](O)[C@H](O)[C@H]2O[C@H]2C[C@](C)(N)[C@H](O)[C@H](C)O2)Oc2ccc(cc2Cl)[C@H]1O [VANCOMYCIN] |  | < 0.5 |  |  | 0.2 (≈ 0.138 µM) | ED50 [11]: < 3.3 mg/kg
7 | C=C(NC(=O)c1csc(-c2nc3c(cc2OC)-c2nc(cs2)C(=O)N[C@@H]([C@@H](C)O)C(=O)N/C(=C(\C)OC)c2nc(cs2)C(=O)N[C@@H]2c4nc(cs4)C(=O)N[C@@H](COC(=O)c4c5c6c(cccc6n4OC)COC(=O)[C@@H](O[C@H]4C[C@](C)(O)[C@H](N(C)C)[C@H](C)O4)[C@H]2OC5)c2nc-3cs2)n1)C(N)=O |  | 0.015 (≈ 0.0102 µM) |  | 3.7 |  | MIC [12]: < 0.007 µg/mL; MIC [13]: < 0.001 µg/mL
8 | C=C(NC(=O)c1csc(-c2nc3c(cc2OCOP(=O)(O)O)-c2nc(cs2)C(=O)N[C@@H]([C@@H](C)O)C(=O)N/C(=C(\C)OC)c2nc(cs2)C(=O)N[C@@H]2c4nc(cs4)C(=O)N[C@@H](COC(=O)c4c5c6c(cccc6n4OCOP(=O)(O)O)COC(=O)[C@@H](O[C@H]4C[C@](C)(O)[C@H](N(C)C)[C@H](C)O4)[C@H]2OC5)c2nc-3cs2)n1)C(N)=O | > 2000 | 0.25 (≈ 0.151 µM) | 0.015 (≈ 0.00905 µM) | 0.15 | 0.125 (≈ 0.0754 µM) | 
